Results published in patent US8263643B2, “Polyphenol compounds with modulating neurotransmitter release” (Sungkyunkwan University Foundation for Corporate …, priority 2007, dated 2012).
Where two headings read alike, the source gives them in different places. Marks after values point to notes of the source that are not given here.

Experiments:
[1] = molecular target: T1, SNARE complex (SNAP25, SynH3, Vps) (UniProt P60879+P63045+Q16623); assay: SDS-PAGE analysis of SNARE complex formation; format: biochemical; conditions: for SNARE complex formation (%): control = 100, footnote: [phenolic compound]:SNAP-25 = 1:1, SNARE proteins 10 μM each, polyphenol 100 μM, room temperature 30 min; for Ratio for inhibition by 50% (IR50), SNARE complex formation: molar concentration ratio phenolic compound:SNAP-25, average of at least three measurements; for Inhibition of SNARE complex formation (in words): FIG. 2, concentration series
T1 construct: SynH3 (AF217197); Vps (NM012663); made in house; host or cells: E. coli (Codon (+) RIL, Novagen)
Experimental: A SNARE complex is strong enough so as not to be untwisted by SDS. On the basis of such a property, a SDS-PAGE analysis was performed in order to determine the formation of a SNARE complex. Polyphenol compounds used in the present Example were purchased from Sigma-Aldrich, Wako Chemical, and Extrasynthese.
In order to produce SNARE proteins, SNARE proteins, such as, SNAP25 (NM011428), syntaxin 1A (AF217197), VAMP2 (NM012663), SynH3 (AF217197), and Vps (NM012663), were purified in biologically transformed E. coli (Codon (+) RIL, Novagen).
Then, the materials were quickly mixed by a vortex, and were reacted at room temperature for 30 minutes. […]

[2] = molecular target: T2, membrane fusion caused by SNARE (SNAP25, syntaxin 1A, VAMP2) (UniProt P60879+P63045+Q16623); assay: Membrane fusion assay with SNARE-reconstituted liposomes (fluorescence); format: biochemical; conditions: for remaining activity at 20 µM: read-out: Membrane fusion caused by SNARE (% of fusion without inhibitor); for Reduction of membrane fusion (in words): FIG. 3; for Ratio for inhibition by 50% (IR50), membrane fusion: molar concentration ratio phenolic compound:SNAP-25, average of at least three measurements
T2 construct: made in house; host or cells: E. coli (Codon (+) RIL, Novagen)
Experimental: In order to produce SNARE proteins, SNARE proteins, such as SNAP25 (NM011428), syntaxin 1A (AF217197), and VAMP2 (NM012663), were purified in biologically transformed E. coli (Codon (+) RIL, Novagen).
In order to prepare liposome (fine membrane) marked with a fluorescent substance, POPC (62 mol %), DOPS (35 mol %), NBD-PS (1.5 mol %) and a fluorescent substance Rhodamin-PE (1.5 mol %) were mixed to obtain 10 mM of liposome (v-vesicle). Also, in order to prepare a liposome not marked with a fluorescent substance, DOPS and POPC were mixed in a molar concentration ratio of 35:65 to obtain 50 mM of liposome (t-vesicle). In order to prepare a complex of the purified SNAP25 and syntaxin 1a, the SNAP25 and the syntaxin 1a were mixed in a molar concentration ratio of 1:1, and then were reacted at room temperature for 1 hour. Then, the resultant mixture and the liposome not marked with a fluorescent substance were mixed in a molar ratio of 100:1. The VAMP2 and the liposome marked with a fluorescent substance were mixed in a molar ratio of 50:1. Then, each of the two kinds of liposomes was dialyzed by using 10 kDa dialyzing membrane through agitation at 4° C. for 24 hours, and the liposomes were mixed in a ratio of 3:7 (v-vesicle t-visicle). Next, fluorescence was measured by using a fluorometer (SpectraMax M2 manufactured by Molecular Device).
Herein, 100% indicates the degree of membrane fusion in the state where no inhibitor was added. As the value is smaller, the inhibiting degree is higher.

[3] = 20 μM phenolic compound, 100% = no inhibitor added

T1 sequence (P60879 whole entry): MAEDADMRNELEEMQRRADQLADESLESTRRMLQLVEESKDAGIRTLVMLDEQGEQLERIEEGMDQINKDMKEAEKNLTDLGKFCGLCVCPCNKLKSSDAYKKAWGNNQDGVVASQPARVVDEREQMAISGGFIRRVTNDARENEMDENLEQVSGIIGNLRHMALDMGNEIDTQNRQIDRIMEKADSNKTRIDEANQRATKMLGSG
T1 sequence (Q16623 192-254 limits assumed): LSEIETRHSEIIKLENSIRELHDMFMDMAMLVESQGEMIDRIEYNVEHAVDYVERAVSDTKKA
T1 sequence (P63045 2-94 limits assumed): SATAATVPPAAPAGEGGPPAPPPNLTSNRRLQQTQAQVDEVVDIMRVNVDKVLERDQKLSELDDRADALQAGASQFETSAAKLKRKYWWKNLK
T2 sequence (P60879 whole entry, the tested form may be a part): as the sequence (P60879 whole entry) above
T2 sequence (Q16623 whole entry, the tested form may be a part): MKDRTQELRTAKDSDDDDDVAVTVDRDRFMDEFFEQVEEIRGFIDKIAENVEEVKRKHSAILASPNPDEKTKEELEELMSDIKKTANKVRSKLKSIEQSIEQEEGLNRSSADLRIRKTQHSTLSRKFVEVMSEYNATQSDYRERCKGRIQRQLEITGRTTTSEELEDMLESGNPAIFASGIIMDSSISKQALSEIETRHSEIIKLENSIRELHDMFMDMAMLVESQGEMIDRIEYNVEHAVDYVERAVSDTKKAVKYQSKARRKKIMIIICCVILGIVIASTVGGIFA
T2 sequence (P63045 whole entry, the tested form may be a part): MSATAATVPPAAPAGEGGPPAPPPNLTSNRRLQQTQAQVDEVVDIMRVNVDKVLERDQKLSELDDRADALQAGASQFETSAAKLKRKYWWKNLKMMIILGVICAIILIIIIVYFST

Row | Structure (SMILES) | SNARE complex formation (%) [1] [%] | remaining activity at 20 µM [2, 3] [%] | also measured
1 | COc1cc(-c2[o+]c3cc(O)cc(O)c3cc2O)cc(OC)c1O [Malvidin] | 97.42 ± 6.31 | – | remaining activity at 20 µM [2]: 116 ± 5.97%
2 | COc1ccc([C@@H]2CC(=O)c3c(O)cc(O)cc3O2)cc1O [Hesperetin] | 114.55 ± 5.00 | 107 ± 2.29 | –
3 | COc1cc2c(c(OC)c1OC)-c1c(cc(OC)c(OC)c1OC)C[C@](C)(O)[C@@H](C)C2 [Schizandrin] | 107.60 ± 13.30 | 116 ± 5.52 | –
4 | Oc1ccc(-c2[o+]c3cc(O)cc(O)c3cc2O)cc1 [Pelargonidin] | 95.61 ± 3.10 | 92.4 ± 3.38 | –
5 | Oc1cc(O)c2c(c1)O[C@H](c1ccc(O)c(O)c1)[C@H](O)C2 [(−)-Epicatechin] | 114.55 ± 5.00 | – | Membrane fusion caused by SNARE (% of fusion without inhibitor) [2, 3]: 97.98 ± 1.50%
6 | O=C(CCc1ccc(O)cc1)c1c(O)cc(O)cc1O[C@@H]1O[C@H](CO)[C@@H](O)[C@H](O)[C@H]1O [Phloridzin] | 115.19 ± 23.74 | 86.3 ± 3.87 | –
7 | COc1cc2c(c(OC)c1OC)-c1c(cc3c(c1OC)OCO3)C[C@H](C)[C@](C)(O)C2 [Gomisin A] | 97.99 ± 0.87 | – | Membrane fusion caused by SNARE (% of fusion without inhibitor) [2, 3]: 79.63 ± 7.58%
8 | COc1cc(C(=O)O)ccc1O [Vanillic acid] | 97.23 ± 5.70 | 99.6 ± 7.63 | –
9 | O=c1cc(-c2ccc(O)cc2)oc2cc(O)cc(O)c12 [Apigenin] | 96.94 ± 7.99 | 96.9 ± 7.99 | –
10 | COc1cc(/C=C/C(=O)O)ccc1O [Ferulic acid] | 93.38 ± 14.39 | 118 ± 2.79 | –
11 | O=c1cc(-c2ccccc2)oc2cc(O)cc(O)c12 [Chrysin] | 98.12 ± 6.56 | 121 ± 1.27 | –
12 | O=C(O)/C=C/c1ccc(O)cc1 [p-Coumaric acid] | 91.21 ± 11.99 | 123 ± 14.3 | –
13 | C[C@@H]1O[C@@H](OC[C@H]2O[C@@H](Oc3c(-c4ccc(O)c(O)c4)oc4cc(O)cc(O)c4c3=O)[C@H](O)[C@@H](O)[C@@H]2O)[C@H](O)[C@H](O)[C@H]1O [Rutin] | 92.86 ± 9.53 | 96.7 ± 10.6 | –
14 | COc1cc2c(c(OC)c1OC)-c1c(cc3c(c1OC)OCO3)C[C@H](C)[C@H](C)C2 [Gomisiin N] | 99.04 ± 5.17 | – | Membrane fusion caused by SNARE (% of fusion without inhibitor) [2, 3]: 92.31 ± 2.37%
15 | O=c1c(-c2ccc(O)cc2)coc2cc(O)ccc12 [Daidzein] | 104.06 ± 24.43 | 113 ± 13.1 | –
16 | Oc1cc(O)c2cc(O)c(-c3cc(O)c(O)c(O)c3)[o+]c2c1 [Delphinidin] | 60.53 ± 18.88 | 37.5 ± 3.45 | –
17 | COc1ccc([C@@H]2CC(=O)c3c(O)cc(O[C@@H]4O[C@H](CO[C@@H]5O[C@@H](C)[C@H](O)[C@@H](O)[C@H]5O)[C@@H](O)[C@H](O)[C@H]4O)cc3O2)cc1O [Hesperidin] | 112.38 ± 10.43 | – | Membrane fusion caused by SNARE (% of fusion without inhibitor) [2, 3]: 124.11 ± 15.01%
18 | O=C(O)c1ccc(O)c(O)c1 [Protocatechuic acid] | 98.38 ± 4.56 | 104 ± 8.19 | –
19 | O=C(O)c1cc(O)ccc1O [Gentisic acid] | 100.16 ± 2.19 | 96.7 ± 2.38 | –

Row | Structure (SMILES) | SNARE complex formation (%) [1] [%] | remaining activity at 20 µM [2, 3] [%] | also measured
20 | COc1cc(C(=O)O)cc(OC)c1O [Syringic acid] | 92.25 ± 5.92 | 78.2 ± 2.47 | –
21 | Oc1cc(O)c2cc(O)c(-c3ccc(O)c(O)c3)[o+]c2c1 [Cyanidin] | 67.12 ± 20.31 | 7.23 ± 1.08 | –
22 | O=C(O)/C=C/c1ccccc1 [Trans-cinnamic acid] | 106.78 ± 30.15 | 108 ± 10.6 | –
23 | O=C(O[C@@H]1Cc2c(O)cc(O)cc2O[C@@H]1c1cc(O)c(O)c(O)c1)c1cc(O)c(O)c(O)c1 [EGCG, Epigallocatechin gallate] | 112.38 ± 10.43 | – | Membrane fusion caused by SNARE (% of fusion without inhibitor) [2, 3]: 57.59 ± 3.39 %
24 | O=c1c(-c2ccc(O)cc2)coc2cc(O)cc(O)c12 [Genistein] | 96.76 ± 8.91 | 119 ± 18.1 | –
25 | C[C@@H]1O[C@@H](Oc2c(-c3ccc(O)c(O)c3)oc3cc(O)cc(O)c3c2=O)[C@H](O)[C@H](O)[C@H]1O [Quercitrin] | 92.18 ± 9.59 | 86 ± 26.1 | –
26 | O=C1c2c(O)cc(O)cc2O[C@H](c2ccc(O)c(O)c2)[C@H]1O [Taxifolin] | – | 109 ± 3.92 | –
27 | O=c1c(O)c(-c2ccc(O)c(O)c2)oc2cc(O)ccc12 [Fisetin] | 90.14 ± 10.42 | 32.1 ± 4.14 | –
28 | O=c1c(O)c(-c2ccc(O[C@@H]3O[C@H](CO)[C@@H](O)[C@H](O)[C@H]3O)c(O)c2)oc2cc(O)cc(O)c12 [Spiraeoside] | – | 107 ± 6.72 | –
29 | O=c1cc(-c2ccc(O)c(O)c2)oc2cc(O)cc(O)c12 [Luteolin] | 86.23 ± 8.14 | 65.5 ± 2.09 | Ratio for inhibition by 50% (IR50), SNARE complex formation [1]: 38.2; Reduction of membrane fusion (in words) [2]: can reduce membrane fusion; Ratio for inhibition by 50% (IR50), membrane fusion [2]: 4.02
30 | C[C@@H]1O[C@@H](O[C@H]2[C@H](Oc3cc(O)c4c(c3)O[C@H](c3ccc(O)cc3)CC4=O)O[C@H](CO)[C@@H](O)[C@@H]2O)[C@H](O)[C@H](O)[C@H]1O [Naringin] | 105.02 ± 11.37 | 107 ± 2.89 | –
31 | O=C(O)/C=C/c1ccc(O)c(O)c1 [Caffeic acid] | 93.33 ± 12.20 | 125 ± 7.45 | –
32 | O=C(/C=C/c1ccc(O)c(O)c1)O[C@@H]1C[C@](O)(C(=O)O)C[C@@H](O)[C@H]1O [Chlorogenic acid] | 100.78 ± 13.62 | 134 ± 1.49 | –
33 | O=c1c(O)c(-c2ccc(O)cc2)oc2cc(O)cc(O)c12 [Kaempferol] | 100.13 ± 7.16 | 108 ± 5 | Inhibition of SNARE complex formation (in words) [1]: inhibit the formation of a SNARE complex by 50% at a low concentration; Ratio for inhibition by 50% (IR50), SNARE complex formation [1]: >60^b; Reduction of membrane fusion (in words) [2]: can reduce membrane fusion; Ratio for inhibition by 50% (IR50), membrane fusion [2]: >20^b
34 | O=c1c(O)c(-c2ccc(O)c(O)c2)oc2cc(O)cc(O)c12 [Quercetin] | 79.80 ± 10.77 | 33.4 ± 2.24 | Inhibition of SNARE complex formation (in words) [1]: inhibit the formation of a SNARE complex by 50% at a low concentration; Ratio for inhibition by 50% (IR50), SNARE complex formation [1]: 24.9; Reduction of membrane fusion (in words) [2]: can reduce membrane fusion; Ratio for inhibition by 50% (IR50), membrane fusion [2]: 2.87
35 | O=c1c(O)c(-c2ccc(O)c(O)c2)oc2c(O[C@@H]3O[C@H](CO)[C@@H](O)[C@H](O)[C@H]3O)c(O)cc(O)c12 [Gossypin] | – | – | Membrane fusion caused by SNARE (% of fusion without inhibitor) [2, 3]: 103.19 ± 9.01%
36 | Oc1cc(O)c2c(c1)O[C@H](c1ccc(O)c(O)c1)[C@@H](O)C2 [(+)-Catechin] | 105.02 ± 11.37 | – | Membrane fusion caused by SNARE (% of fusion without inhibitor) [2, 3]: 89.15 ± 1.19%
37 | O=c1oc2c(O)c(O)cc3c(=O)oc4c(O)c(O)cc1c4c23 [Ellagic acid] | 87.54 ± 9.50 | 22 ± 2.05 | Inhibition of SNARE complex formation (in words) [1]: inhibit the formation of a SNARE complex by 50% at a low concentration; Ratio for inhibition by 50% (IR50), SNARE complex formation [1]: 27.8; Reduction of membrane fusion (in words) [2]: can reduce membrane fusion; Ratio for inhibition by 50% (IR50), membrane fusion [2]: 7.31
